{"source": "PubChem BioAssay AID1963978", "about": "(Molecular Pharmacology Branch, DTP, NCI, 2024);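 also: spheroids exposed to agents for seven days before the viability read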", "tested_on": "616215-338-R-J1-PDC spheroids with HUVEC/MSC, viability", "assay": "Anticancer human tumor 616215-338-R-J1-PDC patient-derived colon adenocarcinoma cell line growth inhibition [PI3K]", "settings": "for IC50: curve of first compound; for viability, T/C: stronger effect = lower value", "procedure,_shortened": "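Tumor cells grown as multi-cell spheroids with HUVEC endothelial cells and MSC fibroblast-like stroma were treated with targeted agents combined with inavolisib, alpelisib, duvelisib or copanlisib. Doses fell in half-log steps from near clinical Cmax, else from 10 microM. Viability was measured.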"}
{"smiles": "Cn1cnc2c(F)c(Nc3ccc(Br)cc3Cl)c(C(=O)NOCCO)cc21", "note": "+ Cc1nc(NC(=O)N2CCCC2C(N)=O)sc1-c1ccnc(C(C)(C)C(F)(F)F)c1", "values": [{"measurement": "IC50", "setting": "second compound 0.0316 µM", "value": 1010, "unit": "nM"}, {"measurement": "IC50", "setting": "second compound 0.1 µM", "value": 1590, "unit": "nM"}, {"measurement": "IC50", "setting": "second compound 0.316 µM", "value": 1110, "unit": "nM"}, {"measurement": "IC50", "setting": "second compound 1 µM", "value": 725, "unit": "nM"}, {"measurement": "IC50", "setting": "second compound 3.16 µM", "value": 423, "unit": "nM"}, {"measurement": "IC50", "setting": "second compound 10 µM", "value": 379, "unit": "nM"}, {"measurement": "viability, T/C", "setting": "second compound 0.0316 µM, first compound 0.00949 µM", "value": 107, "unit": "%"}, {"measurement": "viability, T/C", "setting": "second compound 0.0316 µM, first compound 0.03 µM", "value": 94.8, "unit": "%"}, {"measurement": "viability, T/C", "setting": "second compound 0.0316 µM, first compound 0.0949 µM", "value": 99.2, "unit": "%"}, {"measurement": "viability, T/C", "setting": "second compound 0.0316 µM, first compound 0.3 µM", "value": 79.9, "unit": "%"}, {"measurement": "viability, T/C", "setting": "second compound 0.0316 µM, first compound 0.949 µM", "value": 50.1, "unit": "%"}, {"measurement": "viability, T/C", "setting": "second compound 0.0316 µM, first compound 3 µM", "value": 44.3, "unit": "%"}, {"measurement": "viability, T/C", "setting": "second compound 0.1 µM, first compound 0.00949 µM", "value": 111, "unit": "%"}, {"measurement": "viability, T/C", "setting": "second compound 0.1 µM, first compound 0.03 µM", "value": 91.3, "unit": "%"}, {"measurement": "viability, T/C", "setting": "second compound 0.1 µM, first compound 0.0949 µM", "value": 98.2, "unit": "%"}, {"measurement": "viability, T/C", "setting": "second compound 0.1 µM, first compound 0.3 µM", "value": 91.8, "unit": "%"}, {"measurement": "viability, T/C", "setting": "second compound 0.1 µM, first compound 0.949 µM", "value": 55.3, "unit": "%"}, {"measurement": "viability, T/C", "setting": "second compound 0.1 µM, first compound 3 µM", "value": 43.4, "unit": "%"}, {"measurement": "viability, T/C", "setting": "second compound 0.316 µM, first compound 0.00949 µM", "value": 109, "unit": "%"}, {"measurement": "viability, T/C", "setting": "second compound 0.316 µM, first compound 0.03 µM", "value": 101, "unit": "%"}, {"measurement": "viability, T/C", "setting": "second compound 0.316 µM, first compound 0.0949 µM", "value": 77.4, "unit": "%"}, {"measurement": "viability, T/C", "setting": "second compound 0.316 µM, first compound 0.3 µM", "value": 73.1, "unit": "%"}, {"measurement": "viability, T/C", "setting": "second compound 0.316 µM, first compound 0.949 µM", "value": 50.1, "unit": "%"}, {"measurement": "viability, T/C", "setting": "second compound 0.316 µM, first compound 3 µM", "value": 36.9, "unit": "%"}, {"measurement": "viability, T/C", "setting": "second compound 1 µM, first compound 0.00949 µM", "value": 99.7, "unit": "%"}, {"measurement": "viability, T/C", "setting": "second compound 1 µM, first compound 0.03 µM", "value": 95.6, "unit": "%"}, {"measurement": "viability, T/C", "setting": "second compound 1 µM, first compound 0.0949 µM", "value": 83.4, "unit": "%"}, {"measurement": "viability, T/C", "setting": "second compound 1 µM, first compound 0.3 µM", "value": 75.8, "unit": "%"}, {"measurement": "viability, T/C", "setting": "second compound 1 µM, first compound 0.949 µM", "value": 39.2, "unit": "%"}, {"measurement": "viability, T/C", "setting": "second compound 1 µM, first compound 3 µM", "value": 36.5, "unit": "%"}, {"measurement": "viability, T/C", "setting": "second compound 3.16 µM, first compound 0.00949 µM", "value": 106, "unit": "%"}, {"measurement": "viability, T/C", "setting": "second compound 3.16 µM, first compound 0.03 µM", "value": 94.5, "unit": "%"}, {"measurement": "viability, T/C", "setting": "second compound 3.16 µM, first compound 0.0949 µM", "value": 79.3, "unit": "%"}, {"measurement": "viability, T/C", "setting": "second compound 3.16 µM, first compound 0.3 µM", "value": 55.4, "unit": "%"}, {"measurement": "viability, T/C", "setting": "second compound 3.16 µM, first compound 0.949 µM", "value": 36.4, "unit": "%"}, {"measurement": "viability, T/C", "setting": "second compound 3.16 µM, first compound 3 µM", "value": 26.2, "unit": "%"}, {"measurement": "viability, T/C", "setting": "second compound 10 µM, first compound 0.00949 µM", "value": 101, "unit": "%"}, {"measurement": "viability, T/C", "setting": "second compound 10 µM, first compound 0.03 µM", "value": 86.3, "unit": "%"}, {"measurement": "viability, T/C", "setting": "second compound 10 µM, first compound 0.0949 µM", "value": 94, "unit": "%"}, {"measurement": "viability, T/C", "setting": "second compound 10 µM, first compound 0.3 µM", "value": 54.1, "unit": "%"}, {"measurement": "viability, T/C", "setting": "second compound 10 µM, first compound 0.949 µM", "value": 21.9, "unit": "%"}, {"measurement": "viability, T/C", "setting": "second compound 10 µM, first compound 3 µM", "value": 1.33, "unit": "%"}]}
{"smiles": "CC1(C)CCC(Nc2ncc(C(F)(F)F)c(-c3c[nH]c4c(P(C)(C)=O)c(C#N)ccc34)n2)CN1", "note": "(stereo unspecified)", "values": [{"measurement": "viability, T/C", "setting": "compound 0.1 µM", "value": "54.8% [middle of 4 runs]"}, {"measurement": "viability, T/C", "setting": "compound 1 µM", "value": "60.8% [middle of 4 runs]"}, {"measurement": "viability, T/C", "setting": "compound 3.16 µM", "value": "55.7% [middle of 4 runs]"}, {"measurement": "viability, T/C", "setting": "compound 10 µM", "value": "0.49% [middle of 4 runs]"}]}
